{"source": "patent US20140161720A1", "about": "“TREATMENT OF ANGIOGENIC- OR VASCULAR-ASSOCIATED DISEASES” (THE GENERAL HOSPITAL CORPORATION, priority 2011, published 2014)", "key": {"[1]": {"system": "Rac1", "assay": "Rac1 ubiquitination, Duolink in situ proximity assay in HUVECs", "assay_type": "cell-based, human", "details": "HUVEC, lactacystin or MG-132 pretreatment, DAL 10 μM 24 hours", "method": "HUVEC cells were treated with 10 μM of DAL for 24 hours and then lysed. A western blot with anti-human Rac1 antibody is shown on top panel while the bottom panel represents a loading control. […] To enhance ubiquitination events, HUVEC cells were pretreated with the proteasome inhibitors lactacystin (2.5 mM) or MG-132 (0.2 mM) for one hour and subsequently treated with DAL (10 μM) of DAL for 24 hours. Duolink in situ was used for the detection of ubiquitinated Rac1 in DAL treated and untreated HUVEC cells. For the two Duolink PLA probes, primary mouse antibodies raised against human Rac1 and primary rabbit anti-ubiquitin were used. Fluorescent spots represent ubiquitinated Rac1. The nuclei with additionally stained DAPI.\nHowever, protein levels of Rac1 were reduced after DAL treatment (FIG. 6B). Next, it was assessed whether DAL can enhance Rac1 ubiquitination and therefore promote or speed up degradation (31-34). For the detection of Rac1 ubiquitination in HUVECs, Rac1-ubiquitin binding in situ was identified using a Duolink molecular proximity assay. In this assay, molecules thought to interact are targeted with fluorescent antibodies in situ, and individual interactions generate a signal detectable by microscopy only if secondary antibodies are located in close proximity to each other. […]"}, "[2]": {"molecular_target": "EPHB4 (Homo sapiens, UniProt P54760)", "sequence (P54760 16-987, species assumed)": "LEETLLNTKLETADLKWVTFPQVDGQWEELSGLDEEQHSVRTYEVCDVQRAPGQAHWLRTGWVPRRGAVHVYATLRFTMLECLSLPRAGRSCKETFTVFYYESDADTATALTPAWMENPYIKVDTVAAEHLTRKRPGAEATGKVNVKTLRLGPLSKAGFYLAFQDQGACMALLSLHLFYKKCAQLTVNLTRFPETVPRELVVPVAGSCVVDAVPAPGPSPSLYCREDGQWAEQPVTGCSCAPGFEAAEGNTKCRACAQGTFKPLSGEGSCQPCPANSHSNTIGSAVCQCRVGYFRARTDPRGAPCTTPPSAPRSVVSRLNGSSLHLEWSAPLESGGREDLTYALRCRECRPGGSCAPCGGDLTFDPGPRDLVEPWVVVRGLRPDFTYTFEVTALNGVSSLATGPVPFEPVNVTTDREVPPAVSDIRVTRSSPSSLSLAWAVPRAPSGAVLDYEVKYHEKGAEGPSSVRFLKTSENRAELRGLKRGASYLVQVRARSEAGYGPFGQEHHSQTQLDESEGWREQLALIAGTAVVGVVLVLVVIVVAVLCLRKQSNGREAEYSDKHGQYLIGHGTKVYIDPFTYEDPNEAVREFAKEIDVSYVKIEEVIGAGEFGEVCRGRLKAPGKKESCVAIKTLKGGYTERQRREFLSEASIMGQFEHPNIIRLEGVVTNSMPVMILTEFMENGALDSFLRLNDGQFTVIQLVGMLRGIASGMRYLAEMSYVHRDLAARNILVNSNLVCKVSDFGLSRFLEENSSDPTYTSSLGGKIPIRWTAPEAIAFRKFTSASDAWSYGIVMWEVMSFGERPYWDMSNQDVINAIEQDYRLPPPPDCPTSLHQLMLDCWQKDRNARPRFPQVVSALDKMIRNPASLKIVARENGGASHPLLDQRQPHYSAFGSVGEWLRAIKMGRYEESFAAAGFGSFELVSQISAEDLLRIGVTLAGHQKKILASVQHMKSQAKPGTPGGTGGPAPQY", "assay": "Kinase inhibition screening", "assay_type": "biochemical", "details": "10-dose, starting at 100 μM, 1 μM ATP", "method": "(§1) To determine kinase activity of DAL, various kinases (AKT1, AKT2, AKT3, PKA, PKC alpha, PKC delta, PAK1, EPHB2, EPHB4, p38 alpha, PI3K-alpha, PI3K-beta, PI3K-gamma, PI3K-delta) were screened in a 10-dose IC50 mode with threefold serial dilutions starting at 100 μM. Staurosporine was used as a control starting at 10 μM and the reactions were carried out at 1 μM ATP.\n(§2) Without wishing to be bound by theory, DAL brings about its antivascular effects by destabilizing cell adhesion through the actin cytoskeleton. It was next sought to identify which specific adhesion pathway it targets. Mechanical attachment at cell-cell adherens and tight junctions is regulated by dynamic changes in the actin cytoskeleton. Adherens junctions are composed of E-cadherin/β-catenin complexes and are connected to the actin cytoskeleton via sa-catenin (25-26), while tight junctions consist of transmembrane claudins and occludin and are associated with the actin cytoskeleton via ZO proteins (27-28). Therefore, potential targets of DAL in signaling pathways involved in actin remodeling were evaluated. […] Then, it was sought to determine whether Rho-GTPase family members are targets for DAL due to the disruption of cell adhesion and actin network remodeling along with inhibited motility. Rho-GTPases (e.g., Rac1) plays an important role in actin cytoskeletal organization and is involved in the coordination of cell adhesion (29). Furthermore, Rac1 is responsible for stabilizing endothelial cell junctions by opposing actin remodeling by Rho (30). In order to migrate, cancer cells employ dynamic remodeling of the actin cytoskeleton, form protrusive structures and generate forces necessary to produce cell translocation in the process regulated by Rho-GTPase Rac1. To assess whether DAL can modulate Rac1, RhoA, and Cdc42 activities, affinity purification assays were employed to monitor RhoA and Cdc42/Rac1 activity. The Rho-Binding Domain (RBD) of the Rho effector protein rhotekin and the p21 Binding Domain (PBD) of the Cdc42/Rac effector protein p21 activated kinase 1 (PAK) were applied to pull down active forms of each protein."}, "[3]": {"molecular_target": "PAK1 (Homo sapiens, UniProt Q13153)", "sequence (Q13153 whole entry)": "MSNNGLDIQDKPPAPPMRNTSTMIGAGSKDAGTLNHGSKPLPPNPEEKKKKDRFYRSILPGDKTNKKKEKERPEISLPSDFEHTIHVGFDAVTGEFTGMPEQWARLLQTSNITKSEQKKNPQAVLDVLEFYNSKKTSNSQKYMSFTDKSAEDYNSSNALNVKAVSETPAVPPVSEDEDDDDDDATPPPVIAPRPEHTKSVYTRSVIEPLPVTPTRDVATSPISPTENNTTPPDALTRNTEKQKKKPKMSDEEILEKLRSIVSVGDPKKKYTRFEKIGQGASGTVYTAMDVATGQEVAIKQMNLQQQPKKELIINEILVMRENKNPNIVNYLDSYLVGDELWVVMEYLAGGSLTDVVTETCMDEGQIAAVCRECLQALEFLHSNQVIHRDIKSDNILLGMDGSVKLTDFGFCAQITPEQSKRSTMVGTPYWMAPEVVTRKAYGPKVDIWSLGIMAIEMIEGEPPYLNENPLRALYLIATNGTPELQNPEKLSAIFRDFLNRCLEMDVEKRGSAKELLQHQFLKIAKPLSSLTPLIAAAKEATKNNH", "assay": "Kinase inhibition screening", "assay_type": "biochemical", "details": "10-dose, starting at 100 μM, 1 μM ATP", "method": "as §1, §2"}, "[4]": {"molecular_target": "PKA (Homo sapiens, UniProt P17612)", "assay": "Kinase inhibition screening", "assay_type": "biochemical", "details": "10-dose, starting at 100 μM, 1 μM ATP", "method": "as §1, §2"}, "[5]": {"molecular_target": "PI3K-gamma (Homo sapiens, UniProt P48736)", "sequence (P48736 whole entry, species assumed)": "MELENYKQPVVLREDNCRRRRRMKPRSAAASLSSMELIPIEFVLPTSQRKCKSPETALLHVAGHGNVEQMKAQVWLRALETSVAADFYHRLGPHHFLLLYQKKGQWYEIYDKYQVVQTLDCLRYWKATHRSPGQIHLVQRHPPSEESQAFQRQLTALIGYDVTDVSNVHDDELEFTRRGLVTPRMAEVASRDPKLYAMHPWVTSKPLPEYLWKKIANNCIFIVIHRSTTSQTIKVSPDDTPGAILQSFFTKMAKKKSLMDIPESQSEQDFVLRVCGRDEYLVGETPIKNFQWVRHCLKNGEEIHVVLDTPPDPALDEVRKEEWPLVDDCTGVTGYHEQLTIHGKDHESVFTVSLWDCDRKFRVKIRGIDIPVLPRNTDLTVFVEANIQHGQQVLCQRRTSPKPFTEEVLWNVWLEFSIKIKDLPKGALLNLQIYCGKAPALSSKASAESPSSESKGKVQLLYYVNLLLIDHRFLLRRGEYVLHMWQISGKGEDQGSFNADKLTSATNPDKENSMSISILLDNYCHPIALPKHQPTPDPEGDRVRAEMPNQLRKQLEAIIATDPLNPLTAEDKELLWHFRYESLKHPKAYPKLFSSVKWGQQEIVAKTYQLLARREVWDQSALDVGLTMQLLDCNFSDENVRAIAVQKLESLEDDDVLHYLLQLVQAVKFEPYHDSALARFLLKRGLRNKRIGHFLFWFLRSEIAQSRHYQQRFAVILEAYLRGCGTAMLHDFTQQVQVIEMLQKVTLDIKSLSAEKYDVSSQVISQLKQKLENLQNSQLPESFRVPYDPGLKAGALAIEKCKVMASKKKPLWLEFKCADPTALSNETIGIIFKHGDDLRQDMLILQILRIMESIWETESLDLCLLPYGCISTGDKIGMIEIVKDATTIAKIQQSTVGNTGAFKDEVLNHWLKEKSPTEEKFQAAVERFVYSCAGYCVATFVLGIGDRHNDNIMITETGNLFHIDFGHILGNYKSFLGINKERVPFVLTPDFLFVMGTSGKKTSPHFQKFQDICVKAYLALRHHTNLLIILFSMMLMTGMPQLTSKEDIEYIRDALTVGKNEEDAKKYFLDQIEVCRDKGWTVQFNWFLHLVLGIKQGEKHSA", "assay": "Kinase inhibition screening", "assay_type": "biochemical", "details": "10-dose, starting at 100 μM, 1 μM ATP", "method": "as §1, §2"}, "[6]": {"molecular_target": "PKC delta (Homo sapiens, UniProt Q05655)", "sequence (Q05655 whole entry)": "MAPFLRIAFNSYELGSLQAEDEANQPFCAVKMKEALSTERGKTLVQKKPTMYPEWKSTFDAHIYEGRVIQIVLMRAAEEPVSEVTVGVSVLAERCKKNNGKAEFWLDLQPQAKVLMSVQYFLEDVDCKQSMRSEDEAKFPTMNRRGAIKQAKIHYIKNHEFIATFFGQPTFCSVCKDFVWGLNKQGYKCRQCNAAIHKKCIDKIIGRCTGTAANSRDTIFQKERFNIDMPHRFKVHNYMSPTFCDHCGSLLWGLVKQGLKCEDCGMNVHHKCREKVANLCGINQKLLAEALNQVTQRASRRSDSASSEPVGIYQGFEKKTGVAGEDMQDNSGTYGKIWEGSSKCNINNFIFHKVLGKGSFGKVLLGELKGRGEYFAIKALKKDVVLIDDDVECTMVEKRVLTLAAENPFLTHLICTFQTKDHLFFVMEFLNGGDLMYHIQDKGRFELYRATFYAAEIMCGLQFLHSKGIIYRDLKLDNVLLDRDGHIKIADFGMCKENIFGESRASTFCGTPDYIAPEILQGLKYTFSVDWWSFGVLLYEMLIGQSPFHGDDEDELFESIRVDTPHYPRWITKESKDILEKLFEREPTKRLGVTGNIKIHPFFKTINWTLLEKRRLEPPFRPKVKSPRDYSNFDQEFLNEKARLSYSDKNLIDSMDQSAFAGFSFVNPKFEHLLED", "assay": "Kinase inhibition screening", "assay_type": "biochemical", "details": "10-dose, starting at 100 μM, 1 μM ATP", "method": "as §1, §2"}, "[7]": {"molecular_target": "PI3K-delta (Homo sapiens, UniProt O00329)", "sequence (O00329 whole entry, species assumed)": "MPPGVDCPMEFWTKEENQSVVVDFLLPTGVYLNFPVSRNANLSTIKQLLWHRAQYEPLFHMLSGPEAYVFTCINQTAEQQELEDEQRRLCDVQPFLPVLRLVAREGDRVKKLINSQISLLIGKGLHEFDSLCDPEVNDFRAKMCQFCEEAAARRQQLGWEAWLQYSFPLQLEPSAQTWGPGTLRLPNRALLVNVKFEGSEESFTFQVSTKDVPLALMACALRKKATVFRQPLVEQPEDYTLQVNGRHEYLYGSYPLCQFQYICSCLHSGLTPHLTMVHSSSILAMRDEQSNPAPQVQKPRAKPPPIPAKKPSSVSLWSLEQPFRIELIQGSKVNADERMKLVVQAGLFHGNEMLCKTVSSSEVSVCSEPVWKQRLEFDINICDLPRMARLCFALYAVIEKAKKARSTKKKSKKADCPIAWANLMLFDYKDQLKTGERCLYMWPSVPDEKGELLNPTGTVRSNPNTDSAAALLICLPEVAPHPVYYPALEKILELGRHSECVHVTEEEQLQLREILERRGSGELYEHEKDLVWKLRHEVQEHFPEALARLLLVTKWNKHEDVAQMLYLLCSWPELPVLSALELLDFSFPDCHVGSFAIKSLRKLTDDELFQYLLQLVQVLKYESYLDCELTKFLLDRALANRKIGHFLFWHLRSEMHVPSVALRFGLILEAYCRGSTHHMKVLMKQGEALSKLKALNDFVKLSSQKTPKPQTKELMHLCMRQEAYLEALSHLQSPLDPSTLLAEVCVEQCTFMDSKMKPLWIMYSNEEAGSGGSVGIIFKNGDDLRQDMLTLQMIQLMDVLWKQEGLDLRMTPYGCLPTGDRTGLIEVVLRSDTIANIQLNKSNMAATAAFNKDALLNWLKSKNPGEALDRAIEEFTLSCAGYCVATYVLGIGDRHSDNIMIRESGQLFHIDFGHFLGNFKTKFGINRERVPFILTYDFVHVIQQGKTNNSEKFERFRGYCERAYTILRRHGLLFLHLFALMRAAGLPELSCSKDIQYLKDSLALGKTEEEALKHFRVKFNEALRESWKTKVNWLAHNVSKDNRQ", "sequence (P27986 whole entry partner, species assumed)": "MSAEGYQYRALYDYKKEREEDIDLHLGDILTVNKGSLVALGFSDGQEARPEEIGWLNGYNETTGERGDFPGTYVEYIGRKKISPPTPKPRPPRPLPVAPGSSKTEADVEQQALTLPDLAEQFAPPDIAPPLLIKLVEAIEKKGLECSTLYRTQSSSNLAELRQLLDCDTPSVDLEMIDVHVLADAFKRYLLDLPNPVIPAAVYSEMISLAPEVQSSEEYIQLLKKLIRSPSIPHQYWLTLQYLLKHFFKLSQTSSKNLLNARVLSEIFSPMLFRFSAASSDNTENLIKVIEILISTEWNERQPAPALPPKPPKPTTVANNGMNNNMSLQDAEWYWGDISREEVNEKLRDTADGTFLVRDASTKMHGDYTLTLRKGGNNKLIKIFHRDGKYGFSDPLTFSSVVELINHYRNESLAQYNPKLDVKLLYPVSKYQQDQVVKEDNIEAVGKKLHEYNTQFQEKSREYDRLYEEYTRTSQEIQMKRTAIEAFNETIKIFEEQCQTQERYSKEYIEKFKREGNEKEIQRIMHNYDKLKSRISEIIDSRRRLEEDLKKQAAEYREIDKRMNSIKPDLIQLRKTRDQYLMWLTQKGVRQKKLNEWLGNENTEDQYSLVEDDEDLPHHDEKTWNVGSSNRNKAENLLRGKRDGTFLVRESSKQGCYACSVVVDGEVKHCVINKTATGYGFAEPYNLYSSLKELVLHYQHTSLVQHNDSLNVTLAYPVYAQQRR", "assay": "Kinase inhibition screening", "assay_type": "biochemical", "details": "10-dose, starting at 100 μM, 1 μM ATP", "method": "as §1, §2"}, "[8]": {"system": "Cdc42", "assay": "Cdc42 activation pull-down assay (PAK-PBD) in HUVECs", "assay_type": "cell-based, human", "method": "Rac1 and cdc42 activities were measured with a Rac1 (BK035) activation assay biochem kit (Cytoskeleton) according to the manufacturer protocol. In brief, human umbilical vein endothelial cells (HUVECs) were bovine brain extract-starved for 12 hours in 1% FBS-EGM (Lonza) and pretreated with various concentrations of DAL for 30 minutes at 37° C. The HUVECs were then stimulated with VEGF at […] for 15 minutes at 37° C. After stimulation, the cells were immediately incubated on ice, washed twice with PBS, and lysed with lysis buffer. The lysates were pre-cleared and added with 15 μl of PAK-PBD beads for pull-down of activated Rac1 or cdc42. After rocking at 4° C. for 1 hour, the beads were washed once and boiled at 100° C. for 2 minutes. The protein lysates were then resolved in a 8-16% gradient gel (Invitrogen) and transferred to a PVDF membrane. Primary antibodies (anti-Rac1, 1:1000, cytoskeleton or anti-cdc42, 1:1000, cell signaling) were added to bind to the protein overnight at 4° C., followed by incubation with HRP-conjugated secondary antibodies. Protein activity was measured by the standard ECL method (Amersham).\nWithout wishing to be bound by theory, DAL brings about its antivascular effects by destabilizing cell adhesion through the actin cytoskeleton. […] Therefore, potential targets of DAL in signaling pathways involved in actin remodeling were evaluated. […]"}, "[9]": {"system": "RhoA", "assay": "RhoA activity affinity purification assay (rhotekin RBD)", "assay_type": "cell-based, human", "details": "HUVEC cells", "description": "as §2, with “To assess whether DAL can modulate Rac1, RhoA, and Cdc42 activities, affinity purification assays were employed to monitor RhoA and Cdc42/Rac1 activity. The Rho-Binding Domain (RBD) of the Rho effector protein rhotekin and the p21 Binding Domain (PBD) of the Cdc42/Rac effector protein p21 activated kinase 1 (PAK) were applied to pull down active forms of each protein.” left out"}, "[10]": {"molecular_target": "recombinant purified IDO (Homo sapiens, UniProt P14902)", "details": "cited (He et al., 2008); cited from earlier work"}, "[11]": {"system": "HUVEC", "assay": "F-actin visualization and cell shape in HUVECs (phalloidin)", "assay_type": "cell-based, human", "details": "10 μM, three hours", "method": "For F-actin visualization, HUVECs were plated and treated with saline or DAL (10 μM) for three hours. After fixing and permeabilizing these cultured cells, the cells were subsequently stained with phalloidin. […] Existing cordlike structures, when exposed to 10 μM of DAL for 3 hours, were also disrupted. […] HUVEC monolayers were disrupted mechanically with a pipette tip and the migration of cells to “heal” the wound was monitored using microscopy.\nTo gain further insight into the anti-vascular effects of DAL and to assess the involvement of DAL in modulating actin assembly, normal human umbilical vein endothelial cells(HUVEC) were plated and treated with 10 μM DAL for three hours. The cells were fixed, permeabilized, and subsequently stained with phalloidin to visualize F-actin (FIG. 5A)."}}, "note": "Entries after “also recorded” stand apart in the source; their conditions may differ."}
{"molecule": "CC1(C)C=CC2=C(O1)C(=O)c1ccccc1C2=O", "note": "[DAL, dehydro-alpha-lapachone]", "values": [{"measurement": "Rac1 ubiquitination", "setting": "[1]", "result": "more ubiquitinated Rac1 protein; also recorded: increases"}, {"measurement": "effect on kinase EPHB4", "setting": "[2]", "result": "no significant effects"}, {"measurement": "effect on kinase PAK1", "setting": "[3]", "result": "no significant effects"}, {"measurement": "effect on kinase PKA", "setting": "[4]", "result": "no significant effects"}, {"measurement": "effect on kinase PI3K-gamma", "setting": "[5]", "result": "no significant effects"}, {"measurement": "effect on kinase PKC delta", "setting": "[6]", "result": "no significant effects"}, {"measurement": "effect on kinase PI3K-delta", "setting": "[7]", "result": "no significant effects"}, {"measurement": "Cdc42 activity", "setting": "[8]", "result": "no effect"}, {"measurement": "RhoA activity", "setting": "[9]", "result": "no effect"}, {"measurement": "mode of IDO inhibition with respect to L-tryptophan", "setting": "[10]", "result": "non-competitive"}, {"measurement": "cell size and shape", "setting": "[11]", "result": "smaller than untreated control cells and had a rounded shape"}, {"measurement": "F-actin organization", "setting": "[11]; phalloidin", "result": "actin present only as small fibers and spots throughout the cells or accumulated close to the nuclei"}]}
